{"source": "paper PMC6749236", "about": "“Synthesis of Novel 2-(Het)arylpyrrolidine Derivatives and Evaluation of Their Anticancer and Anti-Biofilm Activity” (Molecules, 2019)", "key": {"M-Hela": {"test_system": "M-Hela", "assay": "Cytotoxicity assay (Cytell Cell Imaging, DAPI/propidium iodide), cancer cell line", "format": "cell-based", "details": "Homo sapiens, M-HeLa, read-out: IC50 Cancer Cell Line M-Hela"}, "Chang liver cell line": {"test_system": "Chang liver cell line", "assay": "Cytotoxicity assay (Cytell Cell Imaging), normal cell line", "format": "cell-based", "details": "Homo sapiens, read-out: IC50 Normal Cell Line Chang Liver"}}, "data": [{"compound": "O=C(NC1CCCCC1)N1CCCC1c1cc2c(cc1O)OCO2", "note": "(stereo not drawn) [5g, N-Cyclohexyl-2-(6-hydroxybenzo[d][1,3]dioxol-5-yl)pyrrolidine-1-carboxamide]", "values": [{"measurement": "IC50", "setting": "M-Hela", "value": "> 100", "unit": "µM"}, {"measurement": "IC50", "setting": "Chang liver cell line", "value": "> 100", "unit": "µM"}, {"measurement": "melting point", "value": "159 to 160", "unit": "°C"}]}, {"compound": "O=C(Nc1ccc(Br)cc1)N1CCCC1c1cc2c(cc1O)OCO2", "note": "(stereo not drawn) [5d, N-(4-Bromophenyl)-2-(6-hydroxybenzo[d][1,3]dioxol-5-yl)pyrrolidine-1-carboxamide]", "values": [{"measurement": "IC50", "setting": "M-Hela", "value": "> 100", "unit": "µM"}, {"measurement": "IC50", "setting": "Chang liver cell line", "value": "> 100", "unit": "µM"}, {"measurement": "melting point", "value": 164, "unit": "°C"}]}, {"compound": "COc1ccc(NC(=O)N2CCCC2c2c(O)c3ccccc3oc2=O)cc1", "note": "(stereo not drawn) [8c, 2-(4-Hydroxy-2-oxo-2H-chromen-3-yl)-N-(4-methoxyphenyl)pyrrolidine-1-carboxamide]", "values": [{"measurement": "IC50", "setting": "M-Hela", "value": "> 100", "unit": "µM"}, {"measurement": "IC50", "setting": "Chang liver cell line", "value": "> 100", "unit": "µM"}, {"measurement": "melting point", "value": "152 to 153", "unit": "°C"}]}, {"compound": "COc1ccc(NC(=O)N2CCCC2c2cc3c(cc2O)OCO3)cc1", "note": "(stereo not drawn) [5c, 2-(6-Hydroxybenzo[d][1,3]dioxol-5-yl)-N-(4-methoxyphenyl)pyrrolidine-1-carboxamide]", "values": [{"measurement": "IC50", "setting": "M-Hela", "value": "> 100", "unit": "µM"}, {"measurement": "IC50", "setting": "Chang liver cell line", "value": "> 100", "unit": "µM"}, {"measurement": "melting point", "value": "112 to 114", "unit": "°C"}]}, {"compound": "Cc1cc(O)c(C2CCCN2C(=O)Nc2ccc(F)cc2)c(=O)o1", "note": "(stereo not drawn) [7e, N-(4-Fluorophenyl)-2-(4-hydroxy-6-methyl-2-oxo-2H-pyran-3-yl)pyrrolidine-1-carboxamide]", "values": [{"measurement": "IC50", "setting": "M-Hela", "value": "> 100", "unit": "µM"}, {"measurement": "IC50", "setting": "Chang liver cell line", "value": "> 100", "unit": "µM"}, {"measurement": "melting point", "value": "177 to 178", "unit": "°C"}]}, {"compound": "CCCCCCNC(=O)N1CCCC1c1c(O)c2ccccc2oc1=O", "note": "(stereo not drawn) [8f, N-Hexyl-2-(4-hydroxy-2-oxo-2H-chromen-3-yl)pyrrolidine-1-carboxamide]", "values": [{"measurement": "IC50", "setting": "M-Hela", "value": "> 100", "unit": "µM"}, {"measurement": "IC50", "setting": "Chang liver cell line", "value": "> 100", "unit": "µM"}, {"measurement": "melting point", "value": "124 to 125", "unit": "°C"}]}, {"compound": "O=C(Nc1ccc(F)cc1)N1CCCC1c1c(O)c2ccccc2oc1=O", "note": "(stereo not drawn) [8e, N-(4-Fluorophenyl)-2-(4-hydroxy-2-oxo-2H-chromen-3-yl)pyrrolidine-1-carboxamide]", "values": [{"measurement": "IC50", "setting": "M-Hela", "value": "> 100", "unit": "µM"}, {"measurement": "IC50", "setting": "Chang liver cell line", "value": "> 100", "unit": "µM"}, {"measurement": "melting point", "value": 165, "unit": "°C"}]}, {"compound": "O=C(Nc1ccc(Br)cc1)N1CCCC1c1c(O)c2ccccc2oc1=O", "note": "(stereo not drawn) [8d, N-(4-Bromophenyl)-2-(4-hydroxy-2-oxo-2H-chromen-3-yl)pyrrolidine-1-carboxamide]", "values": [{"measurement": "IC50", "setting": "M-Hela", "value": "> 100", "unit": "µM"}, {"measurement": "IC50", "setting": "Chang liver cell line", "value": "> 100", "unit": "µM"}, {"measurement": "melting point", "value": 179, "unit": "°C"}]}, {"compound": "CCCCCCNC(=O)N1CCCC1c1ccc(Nc2c([N+](=O)[O-])c(Cl)cc3c2no[n+]3[O-])cc1O", "note": "(stereo not drawn) [6f, 6-Chloro-4-((4-(1-(hexylcarbamoyl)pyrrolidin-2-yl)-3-hydroxyphenyl)amino)-5-nitrobenzo[c][1,2,5]oxadiazole 1-oxide]", "values": [{"measurement": "IC50", "setting": "M-Hela", "value": "47 ± 2.9", "unit": "µM"}, {"measurement": "IC50", "setting": "Chang liver cell line", "value": "57 ± 4.3", "unit": "µM"}, {"measurement": "melting point", "value": "121 to 122 °C (dec.)"}]}, {"compound": "COc1ccc(NC(=O)N2CCCC2c2c(O)cc(C)oc2=O)cc1", "note": "(stereo not drawn) [7c, 2-(4-Hydroxy-6-methyl-2-oxo-2H-pyran-3-yl)-N-(4-methoxyphenyl)pyrrolidine-1-carboxamide]", "values": [{"measurement": "IC50", "setting": "M-Hela", "value": "> 100", "unit": "µM"}, {"measurement": "IC50", "setting": "Chang liver cell line", "value": "> 100", "unit": "µM"}, {"measurement": "melting point", "value": "168 to 169", "unit": "°C"}]}, {"compound": "O=C(Nc1ccc(F)cc1)N1CCCC1c1cc2c(cc1O)OCO2", "note": "(stereo not drawn) [5e, N-(4-Fluorophenyl)-2-(6-hydroxybenzo[d][1,3]dioxol-5-yl)pyrrolidine-1-carboxamide]", "values": [{"measurement": "IC50", "setting": "M-Hela", "value": "> 100", "unit": "µM"}, {"measurement": "IC50", "setting": "Chang liver cell line", "value": "> 100", "unit": "µM"}, {"measurement": "melting point", "value": "184 to 185", "unit": "°C"}]}, {"compound": "O=C(NC1CCCCC1)N1CCCC1c1c(O)c2ccccc2oc1=O", "note": "(stereo not drawn) [8g, N-Cyclohexyl-2-(4-hydroxy-2-oxo-2H-chromen-3-yl)pyrrolidine-1-carboxamide]", "values": [{"measurement": "IC50", "setting": "M-Hela", "value": "> 100", "unit": "µM"}, {"measurement": "IC50", "setting": "Chang liver cell line", "value": "> 100", "unit": "µM"}, {"measurement": "melting point", "value": "166 to 167", "unit": "°C"}]}, {"compound": "Cc1cc(O)c(C2CCCN2C(=O)NC2CCCCC2)c(=O)o1", "note": "(stereo not drawn) [7g, N-Cyclohexyl-2-(4-hydroxy-6-methyl-2-oxo-2H-pyran-3-yl)pyrrolidine-1-carboxamide]", "values": [{"measurement": "IC50", "setting": "M-Hela", "value": "> 100", "unit": "µM"}, {"measurement": "IC50", "setting": "Chang liver cell line", "value": "> 100", "unit": "µM"}, {"measurement": "melting point", "value": "184 to 185", "unit": "°C"}]}, {"compound": "CCCCCCNC(=O)N1CCCC1c1c(O)cc(C)oc1=O", "note": "(stereo not drawn) [7f, N-Hexyl-2-(4-hydroxy-6-methyl-2-oxo-2H-pyran-3-yl)pyrrolidine-1-carboxamide]", "values": [{"measurement": "IC50", "setting": "M-Hela", "value": "> 100", "unit": "µM"}, {"measurement": "IC50", "setting": "Chang liver cell line", "value": "> 100", "unit": "µM"}, {"measurement": "melting point", "value": "137 to 138", "unit": "°C"}]}, {"compound": "Cc1cc(O)c(C2CCCN2C(=O)Nc2ccccc2)c(=O)o1", "note": "(stereo not drawn) [7b, 2-(4-Hydroxy-6-methyl-2-oxo-2H-pyran-3-yl)-N-phenylpyrrolidine-1-carboxamide]", "values": [{"measurement": "IC50", "setting": "M-Hela", "value": "> 100", "unit": "µM"}, {"measurement": "IC50", "setting": "Chang liver cell line", "value": "> 100", "unit": "µM"}, {"measurement": "melting point", "value": "190 to 191", "unit": "°C"}]}, {"compound": "O=C(Nc1ccccc1)N1CCCC1c1c(O)c2ccccc2oc1=O", "note": "(stereo not drawn) [8b, 2-(4-Hydroxy-2-oxo-2H-chromen-3-yl)-N-phenylpyrrolidine-1-carboxamide]", "values": [{"measurement": "IC50", "setting": "M-Hela", "value": "> 100", "unit": "µM"}, {"measurement": "IC50", "setting": "Chang liver cell line", "value": "> 100", "unit": "µM"}, {"measurement": "melting point", "value": "179 to 180", "unit": "°C"}]}, {"compound": "CCCCCCNC(=O)N1CCCC1c1cc2c(cc1O)OCO2", "note": "(stereo not drawn) [5f, N-Hexyl-2-(6-hydroxybenzo[d][1,3]dioxol-5-yl)pyrrolidine-1-carboxamide]", "values": [{"measurement": "IC50", "setting": "M-Hela", "value": "> 100", "unit": "µM"}, {"measurement": "IC50", "setting": "Chang liver cell line", "value": "> 100", "unit": "µM"}, {"measurement": "melting point", "value": "91 to 93", "unit": "°C"}]}]}
